In PMC7583942, “Profiling Anticancer and Antioxidant Activities of Phenolic Compounds Present in Black Walnuts (Juglans nigra) Using a High-Throughput Screening Approach” (Molecules, 2020):
Read-outs that look alike come from different tables or passages of the source.

Assays:
[1] = test system: tumorigenic alveolar epithelial cells (A549); assay: Cell proliferation assay (CellTiter-Glo), A549; assay type: cell-based, human; settings: read-out: Half maximal inhibitory concentration (IC50), A549 Cell Line
Experimental: (§1) An Nrf2 antioxidant response element (ARE) reporter HepG2 cell line, a stably transfected liver cell line expressing a firefly luciferase gene under the control of the ARE, was purchased from BPS Bioscience (San Diego, CA, USA). The human alveolar epithelial cell line A549 and the human lung fibroblast cell line MRC-5 were obtained from American Type Culture Collection (ATCC) (CCL-185 and CCL-171, ATCC, Manassas, VA, USA). The HepG2-ARE cells were grown in modified Eagle’s medium (MEM) supplemented with GlutaMAX, 10% fetal calf serum (FBS) and 600ug/mL Geneticin (Thermo Fisher Scientific, Waltham, MA, USA). […] All cells were grown and maintained at 37 °C in a humidified incubator with 5% CO2. Influence of the phenolic compounds on cell growth in the tumorigenic alveolar epithelial cells (A549) and non-tumorigenic lung fibroblast cell (MRC-5) cell lines was investigated using the CellTiter-Glo® cell viability assay kit (G7571, BioVision, CA, USA), according to the manufacturer’s instructions. […] The cultures were treated with the phenolic compounds and DL-Sulphorane (a known antiproliferative agent as a positive control) at 7 final concentrations (as mentioned above) and a vehicle (0.35% DMSO). After 72h of incubation, CellTiter-Glo Luminescent assay reagent (Promega) was dispensed at a volume of 10 µL per well into the 384-well plates for 10 min using the Matrix Wellmate dispenser (Thermo Fisher Scientific). The plates were allowed to incubate at room temperature for 20 min and then the luminescence was read using an Enspire microplate reader (Perkin Elmer Inc.) The relative cytotoxicity (%) of the phenolic compounds was calculated by dividing the specific luminescence absorbance of the treated sampled by the specific luminescence absorbance of the control sample and multiplying by 100. The control sample (in the presence of DMSO vehicle and without the compounds) was set at 100%. Non-linear regression analysis of data was performed to identify the dose-response curve for each compound. The IC50 values (half maximal inhibitory concentration) of each compound were determined from the dose-response curve for the A549 and MRC-5 cell lines using GraphPad Prism 8.

[2] = test system: non-tumorigenic lung fibroblast cells (MRC-5); assay: Cell proliferation assay (CellTiter-Glo), MRC-5; assay type: cell-based, human; settings: read-out: Half maximal inhibitory concentration (IC50), MRC-5 Cell Line
Experimental: as §1

[3] = Total antioxidant capacity (TAC) colorimetric assay; settings: for Fold-Increase Over Trolox: coefficient of compound model divided by coefficient of Trolox control; for total antioxidant capacity compared with the control (Trolox): in words; for Slope (in Trolox Equivalents): linear regression of dose-response, 7 concentrations, Cu2+ reagent, 1.5 h, absorbance 570 nm
Experimental: The antioxidant capacity of the phenolic compounds was evaluated using a total antioxidant capacity (TAC) colorimetric assay kit (K274-100, BioVision, CA, USA), according to the manufacturer’s instructions. Briefly, the phenolic compounds tested at 7 concentrations (as described above) were added to 384-well plates. Subsequently, Cu^2+ working solution (12.5 µL/ well) was added into the sample wells. The 384-well plates were incubated for 1.5 h at room temperature and the absorbance of the samples was then read at 570 nm using a microplate reader (Enspire, Perkin Elmer Inc., Waltham, MA, USA). Trolox was used to standardize the antioxidant capacity, as recommended by the manufacturer. A Trolox standard curve was included, and the total antioxidant capacity of the phenolic compounds was interpolated and expressed as Trolox equivalent (mM) from a seven-parameter logistic curve of the Trolox control using curve-fitting software.
For total antioxidant capacity analysis, linear regression analysis was performed to identify the linear regression equation for each compound using GraphPad Prism 8 (San Diego, CA, USA). The coefficient of the compound equation was compared with the coefficient of the Trolox control to determine the relative total antioxidant capacity of each compound. Fold-increase over Trolox was calculated by dividing the coefficient of the compound models by the coefficient of the Trolox control.

[4] = test system: antioxidant response element (ARE) in HepG2-ARE cells; assay: Antioxidant response element (ARE) activation, Steady-Glo luciferase reporter assay; assay type: cell-based, human; settings: for toxicity to HepG2-ARE cells: at high concentrations, did not induce ARE activation
Experimental: An Nrf2 antioxidant response element (ARE) reporter HepG2 cell line, a stably transfected liver cell line expressing a firefly luciferase gene under the control of the ARE, was purchased from BPS Bioscience (San Diego, CA, USA). The human alveolar epithelial cell line A549 and the human lung fibroblast cell line MRC-5 were obtained from American Type Culture Collection (ATCC) (CCL-185 and CCL-171, ATCC, Manassas, VA, USA). The HepG2-ARE cells were grown in modified Eagle’s medium (MEM) supplemented with GlutaMAX, 10% fetal calf serum (FBS) and 600ug/mL Geneticin (Thermo Fisher Scientific, Waltham, MA, USA). The tumorigenic alveolar epithelial cells (A549) and non-tumorigenic lung fibroblast cells (MRC-5) were grown in RPMI medium supplemented with 10% FBS. All cells were grown and maintained at 37 °C in a humidified incubator with 5% CO2.
The impact of the phenolic compounds on ARE activation in the HepG2-ARE cell line was evaluated using Steady-Glo® Luciferase assay system (E2510, Promega, Madison, WI, USA), following the manufacturer’s instructions. In brief, the HepG2 -ARE cells were seeded at a density of 10,000 cells/well in 384-well plates containing 50 µL of the complete media per well using a Multidrop Combi dispenser (Thermo Fisher Scientific, Waltham, MA, USA) and then the plate cultures were incubated at 37 °C in a 5% CO2 humidified incubator for 20 h. The HepG2-ARE cells were incubated with compounds for 18 h. The known ARE activator TBHQ was used as a positive control and the cells treated with 0.35% DMSO and without compounds tested served as a vehicle control. The cells in the absence of DMSO and the compounds were utilized for measuring the background luminescence. The reporter activity was measured by the addition of 25 µL Steady-Glo® luciferase assay reagent (Promega) for 30 min using the Multidrop Combi dispenser (Thermo Fisher Scientific). The luminescence intensities of the 384-well plates were read on Enspire microplate reader (Perkin Elmer Inc.). Percent cytotoxicity of compounds was normalized to the positive and negative controls on each assay plate.
The ARE fold induction of the compounds was measured by dividing the luminescence absorbance of the treatment by the specific luminescence absorbance of the control sample and multiplying by 100. The control sample (in the presence of DMSO vehicle and without the compounds) was set at 100%.

[5] = Homo sapiens, A549, 72 h incubation
[6] = Homo sapiens, MRC5, 72 h incubation

| SMILES | IC50 [1, 5] [µM] | IC50 ([1]; 72 h incubation) [µM] | IC50 ([2]; 72 h incubation) [µM] | Fold-Increase Over Trolox [3] | total antioxidant capacity compared with the control (Trolox) [3] | Slope (in Trolox Equivalents) [3] | ARE activation among all compounds (rank in words) ([4]; HepG2-ARE cells, 18 h) | IC50 [2, 6] [µM] | toxicity to HepG2-ARE cells [4] |
| --- | --- | --- | --- | --- | --- | --- | --- | --- | --- |
| C[S+]([O-])CCCCN=C=S (racemic) [DL-Sulforaphane, reference compound] | – | 17 | 9.95 | – | – | – | – | – | – |
| Oc1cc(O)c2c(c1)O[C@H](c1ccc(O)c(O)c1)[C@@H](O)C2 [(+)-Catechin] | – | > 250 | > 250 | 2.0 | higher | 0.002029 ± 3.184 × 10^−5 | – | – | – |
| COc1cc(/C=C/C(=O)O)ccc1O [Ferulic acid] | – | > 250 | > 250 | 1.8 | higher | 0.001775 ± 5.026 × 10^−5 | – | – | – |
| O=C(OC[C@H]1O[C@@H](OC(=O)c2cc(O)c(O)c(O)c2)[C@H](OC(=O)c2cc(O)c(O)c(O)c2)[C@@H](OC(=O)c2cc(O)c(O)c(O)c2)[C@@H]1OC(=O)c1cc(O)c(O)c(O)c1)c1cc(O)c(O)c(O)c1 [Penta-O-galloyl-β-D-glucose] | – | 6.11 | 10.4 | 11.5 | higher | 0.01167 ± 5.756 × 10^−4 | – | – | toxic to cells |
| O=c1c(O[C@@H]2O[C@H](CO)[C@@H](O)[C@H](O)[C@H]2O)c(-c2ccc(O)c(O)c2)oc2cc(O)cc(O)c12 [Quercetin 3-β-D-glucoside] | – | 6.89 | 12.2 | 2.9 | higher | 0.002908 ± 1.522 × 10^−4 | – | – | toxic to cells |
| O=C(O)[C@]1(O)C[C@@H](O)[C@@H](O)[C@H](O)C1 [Quinic acid] | > 250 | – | – | <0.1 | lower | −0.0000004 ± 1.034 × 10^−6 | – | > 250 | – |
| COc1cc(C(=O)O)cc(OC)c1O [Syringic acid] | > 250 | – | – | 1.1 | higher | 0.001088 ± 1.057 × 10^−5 | – | > 250 | – |
| Cc1c(C)c2c(c(C)c1O)CCC(C)(C(=O)O)O2 (centres unmarked) [Trolox, reference compound] | – | – | – | 1.0 | – | 0.001014 ± 1.125 × 10^−5 | – | – | – |
| O=C(O)C=Cc1ccc(O)cc1 [p-Coumaric acid] | > 250 | – | – | 0.3 | lower | 0.0003139 ± 1.434 × 10^−5 | – | > 250 | – |
| O=C(O)c1ccc(O)cc1 [p-Hydroxybenzoic acid] | > 250 | – | – | – | lower | −0.000008 ± 1.260 × 10^−5 | – | > 250 | – |

Further lines, with some results ahead:

| IC50 [1, 5] [µM] | SMILES | IC50 ([1]; 72 h incubation) [µM] | IC50 ([2]; 72 h incubation) [µM] | Fold-Increase Over Trolox [3] | total antioxidant capacity compared with the control (Trolox) [3] | Slope (in Trolox Equivalents) [3] | ARE activation among all compounds (rank in words) ([4]; HepG2-ARE cells, 18 h) | IC50 [2, 6] [µM] | toxicity to HepG2-ARE cells [4] |
| --- | --- | --- | --- | --- | --- | --- | --- | --- | --- |
| > 250 | Oc1cc(O)c2c(c1)O[C@H](c1ccc(O)c(O)c1)[C@H](O)C2 [(−)-Epicatechin] | – | – | 3.7 | higher | 0.003729 ± 7.546 × 10^−5 | strongest | > 250 | – |
| > 250 | O=c1oc2c(O)c(O)cc3c(=O)oc4c(O)c(O)cc1c4c23 [Ellagic acid] | – | – | 0.5 | lower | 0.0005183 ± 2.860 × 10^−5 | – | > 250 | – |
| 66 | O=C(O[C@@H]1Cc2c(O)cc(O)cc2O[C@@H]1c1ccc(O)c(O)c1)c1cc(O)c(O)c(O)c1 [Epicatechin gallate] | – | – | 4.2 | higher | 0.004294 ± 1.570 × 10^−4 | – | 64.4 | toxic to cells |
| > 250 | O=C(O)c1cc(O)c(O)c(O)c1 [Gallic acid] | – | – | – | higher | 0.002541 ± 1.392 × 10^−5 | – | 48.2 | – |
| > 250 | C[C@@H]1O[C@@H](O[C@H]2[C@H](Oc3cc(O)c4c(c3)O[C@H](c3ccc(O)cc3)CC4=O)O[C@H](CO)[C@@H](O)[C@@H]2O)[C@H](O)[C@H](O)[C@H]1O [Naringin] | – | – | 0.5 | lower | 0.0005177 ± 9.755 × 10^−6 | – | > 250 | – |
| 87.7 | O=c1c(O)c(-c2ccc(O)c(O)c2)oc2cc(O)cc(O)c12 [Quercetin] | – | – | 4.0 | higher | 0.004045 ± 1.392 × 10^−4 | – | 99.5 | – |
| > 250 | C[C@@H]1O[C@@H](OC[C@H]2O[C@@H](Oc3c(-c4ccc(O)c(O)c4)oc4cc(O)cc(O)c4c3=O)[C@H](O)[C@@H](O)[C@@H]2O)[C@H](O)[C@H](O)[C@H]1O [Rutin] | – | – | 2.9 | higher | 0.002962 ± 1.551 × 10^−4 | – | > 250 | – |
| > 250 | COc1cc(C(=O)O)ccc1O [Vanillic acid] | – | – | 0.7 | lower | 0.0007396 ± 4.245 × 10^−5 | – | > 250 | – |
